Test results taken from patent US20150307520A1, “NOVEL HETEROARYL AND HETEROCYCLE COMPOUNDS, COMPOSITIONS AND METHODS THEREOF” (HUTCHISON MEDIPHARMA LIMITED, priority 2012, published 2015).

Tests used:
Format in all cases: biochemical
p110β/p85α = p110β/p85α (Homo sapiens, UniProt P42338); assay: Transcreener KINASE Assay, kinase inhibition of p110β/p85α; conditions: for IC50: read-out: PI3Kβ IC50; for PI3Kβ IH % @ 1 uM: 1 uM test compound
Summary of the method: (§1)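 ADP formation read by far-red competitive FP immunoassay (60 min RT detection step) after an 80 min RT kinase reaction; substrate added as a 30 uM PIP2/10 uM ATP solution (not final).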

p110δ/p85α = p110δ/p85α (Homo sapiens, UniProt O00329); assay: Transcreener KINASE Assay, kinase inhibition of p110δ/p85α; conditions: for IC50: read-out: PI3Kδ IC50; for PI3Kδ IH % @ 1 uM: 1 uM test compound
Chain of p110δ/p85α (O00329 whole entry): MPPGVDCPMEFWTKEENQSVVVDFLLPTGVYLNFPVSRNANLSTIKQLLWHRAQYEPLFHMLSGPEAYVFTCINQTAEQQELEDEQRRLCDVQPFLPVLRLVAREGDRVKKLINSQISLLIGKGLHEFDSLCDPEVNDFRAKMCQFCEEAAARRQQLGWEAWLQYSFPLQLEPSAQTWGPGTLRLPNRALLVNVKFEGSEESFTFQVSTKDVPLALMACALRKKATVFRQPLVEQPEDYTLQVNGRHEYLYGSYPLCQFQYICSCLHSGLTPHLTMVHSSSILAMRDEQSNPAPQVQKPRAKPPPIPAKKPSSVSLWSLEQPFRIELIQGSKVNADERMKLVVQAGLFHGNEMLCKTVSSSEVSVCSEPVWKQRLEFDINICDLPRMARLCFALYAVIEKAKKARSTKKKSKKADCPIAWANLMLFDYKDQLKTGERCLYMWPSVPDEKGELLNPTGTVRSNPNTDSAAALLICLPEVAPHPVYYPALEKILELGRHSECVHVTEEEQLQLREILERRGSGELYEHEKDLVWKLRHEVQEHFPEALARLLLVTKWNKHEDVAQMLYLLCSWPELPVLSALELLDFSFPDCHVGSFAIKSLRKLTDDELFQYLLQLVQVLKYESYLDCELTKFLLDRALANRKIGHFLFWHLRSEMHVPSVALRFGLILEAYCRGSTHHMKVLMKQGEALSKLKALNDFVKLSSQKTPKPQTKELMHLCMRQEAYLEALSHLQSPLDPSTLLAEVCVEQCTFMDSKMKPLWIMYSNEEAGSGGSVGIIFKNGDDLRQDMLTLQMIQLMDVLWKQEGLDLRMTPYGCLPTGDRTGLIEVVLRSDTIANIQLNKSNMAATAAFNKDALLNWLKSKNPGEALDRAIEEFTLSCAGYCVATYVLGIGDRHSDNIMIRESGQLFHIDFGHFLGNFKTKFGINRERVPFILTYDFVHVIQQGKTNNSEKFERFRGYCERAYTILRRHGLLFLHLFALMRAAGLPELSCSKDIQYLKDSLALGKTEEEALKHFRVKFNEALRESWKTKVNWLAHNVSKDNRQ
Chain of p110δ/p85α (P27986 whole entry partner): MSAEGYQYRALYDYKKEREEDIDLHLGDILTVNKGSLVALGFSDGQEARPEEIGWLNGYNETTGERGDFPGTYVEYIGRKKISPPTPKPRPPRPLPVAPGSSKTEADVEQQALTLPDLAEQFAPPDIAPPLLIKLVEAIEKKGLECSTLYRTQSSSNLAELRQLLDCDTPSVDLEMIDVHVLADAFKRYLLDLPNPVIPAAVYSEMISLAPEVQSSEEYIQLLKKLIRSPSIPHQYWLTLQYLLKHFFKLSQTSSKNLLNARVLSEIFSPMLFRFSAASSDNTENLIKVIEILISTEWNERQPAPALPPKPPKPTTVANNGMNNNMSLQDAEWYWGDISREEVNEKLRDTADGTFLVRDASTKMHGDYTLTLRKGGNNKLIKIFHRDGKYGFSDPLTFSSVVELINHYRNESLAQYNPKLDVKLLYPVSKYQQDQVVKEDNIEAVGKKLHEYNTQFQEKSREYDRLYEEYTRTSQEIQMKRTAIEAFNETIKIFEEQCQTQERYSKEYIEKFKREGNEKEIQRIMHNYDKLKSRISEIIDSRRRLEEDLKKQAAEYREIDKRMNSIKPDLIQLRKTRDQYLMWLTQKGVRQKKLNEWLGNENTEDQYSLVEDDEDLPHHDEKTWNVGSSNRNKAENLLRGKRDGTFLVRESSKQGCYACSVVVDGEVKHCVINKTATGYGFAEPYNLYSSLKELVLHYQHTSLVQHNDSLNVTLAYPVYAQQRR
Summary of the method: as §1

p110γ = p110γ (Homo sapiens, UniProt P48736); assay: Transcreener KINASE Assay, kinase inhibition of p110γ; conditions: for IC50: read-out: PI3Kγ IC50; for PI3Kγ IH % @ 1 uM: 1 uM test compound
Chain of p110γ (P48736 whole entry, canonical isoform): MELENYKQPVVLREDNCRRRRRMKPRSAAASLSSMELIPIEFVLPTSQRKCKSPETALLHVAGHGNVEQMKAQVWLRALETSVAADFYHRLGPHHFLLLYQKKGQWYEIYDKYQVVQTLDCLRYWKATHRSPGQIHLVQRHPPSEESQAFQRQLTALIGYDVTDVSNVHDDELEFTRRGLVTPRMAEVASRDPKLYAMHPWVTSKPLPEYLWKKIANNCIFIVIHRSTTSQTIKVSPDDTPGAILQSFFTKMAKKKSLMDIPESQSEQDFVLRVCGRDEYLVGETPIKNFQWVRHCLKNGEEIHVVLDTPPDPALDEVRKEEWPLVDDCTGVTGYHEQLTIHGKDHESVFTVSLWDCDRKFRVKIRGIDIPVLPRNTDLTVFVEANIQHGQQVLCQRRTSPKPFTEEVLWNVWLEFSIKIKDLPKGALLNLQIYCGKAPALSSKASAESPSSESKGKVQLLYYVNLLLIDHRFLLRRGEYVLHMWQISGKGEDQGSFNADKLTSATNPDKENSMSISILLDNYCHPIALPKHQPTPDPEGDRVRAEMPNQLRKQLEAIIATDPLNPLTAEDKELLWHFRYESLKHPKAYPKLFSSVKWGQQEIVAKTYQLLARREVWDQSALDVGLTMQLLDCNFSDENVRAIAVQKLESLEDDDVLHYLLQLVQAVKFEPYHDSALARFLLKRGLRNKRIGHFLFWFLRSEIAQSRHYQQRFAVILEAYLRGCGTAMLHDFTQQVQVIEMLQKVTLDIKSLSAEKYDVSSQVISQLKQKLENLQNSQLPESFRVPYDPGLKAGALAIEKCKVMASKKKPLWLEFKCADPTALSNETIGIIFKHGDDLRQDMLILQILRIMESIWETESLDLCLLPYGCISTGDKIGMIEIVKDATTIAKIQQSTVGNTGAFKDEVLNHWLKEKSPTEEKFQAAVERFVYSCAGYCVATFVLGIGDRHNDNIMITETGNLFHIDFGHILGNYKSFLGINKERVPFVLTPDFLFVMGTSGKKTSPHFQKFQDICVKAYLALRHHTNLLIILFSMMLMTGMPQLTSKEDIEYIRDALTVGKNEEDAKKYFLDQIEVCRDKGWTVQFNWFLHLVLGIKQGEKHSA
Summary of the method: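 Recombinant PI3K isoforms (p85α complexes or p110γ alone) reacted 80 min at room temperature, then ADP detection mix added for 60 min. ADP formation read by far-red competitive fluorescence polarization immunoassay; IC50 by curve fitting.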

Chain of p110β/p85α (P42338 whole entry): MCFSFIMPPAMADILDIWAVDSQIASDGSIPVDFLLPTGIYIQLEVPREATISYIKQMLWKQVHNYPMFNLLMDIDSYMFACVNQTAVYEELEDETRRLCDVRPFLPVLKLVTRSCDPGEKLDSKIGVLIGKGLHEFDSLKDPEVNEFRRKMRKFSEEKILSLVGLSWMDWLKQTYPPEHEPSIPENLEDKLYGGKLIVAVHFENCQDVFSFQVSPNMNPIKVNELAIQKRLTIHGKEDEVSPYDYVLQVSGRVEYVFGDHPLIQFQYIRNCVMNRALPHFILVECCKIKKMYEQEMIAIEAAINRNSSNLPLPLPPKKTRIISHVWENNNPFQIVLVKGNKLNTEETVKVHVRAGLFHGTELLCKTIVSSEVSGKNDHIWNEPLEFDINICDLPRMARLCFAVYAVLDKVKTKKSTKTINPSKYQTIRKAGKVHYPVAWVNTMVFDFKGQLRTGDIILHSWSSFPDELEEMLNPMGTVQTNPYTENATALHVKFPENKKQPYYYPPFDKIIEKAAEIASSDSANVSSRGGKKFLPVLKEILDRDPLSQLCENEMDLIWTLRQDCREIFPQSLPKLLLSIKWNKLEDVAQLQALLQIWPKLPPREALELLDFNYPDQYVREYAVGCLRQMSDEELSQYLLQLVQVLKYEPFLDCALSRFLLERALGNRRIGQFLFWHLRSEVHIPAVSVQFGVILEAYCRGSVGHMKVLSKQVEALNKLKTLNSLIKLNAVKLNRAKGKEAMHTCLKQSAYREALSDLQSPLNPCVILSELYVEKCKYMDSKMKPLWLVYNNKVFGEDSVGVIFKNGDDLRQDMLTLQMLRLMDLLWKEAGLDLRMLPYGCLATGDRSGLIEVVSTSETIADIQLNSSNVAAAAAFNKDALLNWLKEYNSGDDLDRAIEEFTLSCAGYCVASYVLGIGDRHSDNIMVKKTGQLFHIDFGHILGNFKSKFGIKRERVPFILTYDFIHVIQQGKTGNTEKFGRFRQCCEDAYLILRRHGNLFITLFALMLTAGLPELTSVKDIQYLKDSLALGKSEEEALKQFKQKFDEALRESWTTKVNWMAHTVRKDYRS
Chain of p110β/p85α (P27986 2-724 partner): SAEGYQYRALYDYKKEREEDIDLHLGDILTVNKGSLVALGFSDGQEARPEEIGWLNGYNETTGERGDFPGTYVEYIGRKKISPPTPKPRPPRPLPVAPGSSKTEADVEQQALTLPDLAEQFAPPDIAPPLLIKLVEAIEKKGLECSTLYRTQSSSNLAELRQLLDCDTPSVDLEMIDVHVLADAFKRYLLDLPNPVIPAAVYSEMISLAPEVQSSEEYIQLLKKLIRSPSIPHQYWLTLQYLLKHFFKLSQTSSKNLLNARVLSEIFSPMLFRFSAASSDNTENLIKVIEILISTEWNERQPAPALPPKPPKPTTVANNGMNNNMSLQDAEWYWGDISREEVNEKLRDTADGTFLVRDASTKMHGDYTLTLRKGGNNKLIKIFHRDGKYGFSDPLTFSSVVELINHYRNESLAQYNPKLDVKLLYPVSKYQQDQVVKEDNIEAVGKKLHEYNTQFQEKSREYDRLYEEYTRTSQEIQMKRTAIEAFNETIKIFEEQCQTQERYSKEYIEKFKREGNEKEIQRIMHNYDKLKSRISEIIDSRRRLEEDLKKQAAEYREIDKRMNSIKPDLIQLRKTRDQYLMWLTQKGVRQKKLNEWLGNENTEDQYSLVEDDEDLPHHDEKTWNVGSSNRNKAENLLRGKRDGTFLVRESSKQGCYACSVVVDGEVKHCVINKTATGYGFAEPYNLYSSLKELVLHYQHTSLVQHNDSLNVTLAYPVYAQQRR

SMILES	IC50 (p110β/p85α) [nM]	IC50 (p110δ/p85α) [nM]	IC50 (p110γ) [nM]	PI3Kβ IH % @ 1 uM (p110β/p85α) [%]	PI3Kδ IH % @ 1 uM (p110δ/p85α) [%]	PI3Kγ IH % @ 1 uM (p110γ) [%]
CC(Nc1nc(N)nc2c1C(=O)CCN2)c1cc2ncc(Cl)n2c(=O)n1-c1ccccc1 (stereo not shown) [Compound 290]	39	1	4			
C=Cc1ccn2nc([C@@H]3CCN3c3ncnc4[nH]cc(C#N)c34)n(-c3ccccc3)c(=O)c12 [Compound 291]			143	12.6	80.4	91.1
C=Cc1ccn2nc([C@@H]3CCCN3c3ncnc4[nH]cc(C#N)c34)n(-c3ccccc3)c(=O)c12 [Compound 292]		7	112	45.1	>100	94.7
O=c1c2c(Cl)ccn2nc([C@@H]2C[S+]([O-])CN2c2ncnc3[nH]cnc23)n1-c1ccccc1 (stereo partly drawn) [Compound 293, 5-chloro-2-((4R)-1-oxido-3-(9H-purin-6-yl)thiazolidin-4-yl)-3-phenylpyrrolo[2,1-f][1,2,4]triazin-4(3H)-one]		14	103	54.2	98.9	94.7
O=c1c2c(Cl)ccn2nc([C@@H]2CSCN2c2ncnc3[nH]cnc23)n1-c1ccccc1 [Compound 294, (R)-2-(3-(9H-purin-6-yl)thiazolidin-4-yl)-5-chloro-3-phenylpyrrolo[2,1-f][1,2,4]triazin-4(3H)-one]	475	3	26	70.6	99.3	>100
CC(=O)c1c[nH]c2ncnc(N3CC[C@H]3c3nn4ccc(Cl)c4c(=O)n3-c3ccc(F)cc3)c12 [Compound 296, (S)-2-(1-(5-acetyl-7H-pyrrolo[2,3-d]pyrimidin-4-yl)azetidin-2-yl)-5-chloro-3-(4-fluorophenyl)pyrrolo[2,1-f][1,2,4]triazin-4(3H)-one]		381	36	6.8	77.0	85.5
CC(=O)c1n[nH]c2ncnc(N3CCC[C@H]3c3nn4ccc(Cl)c4c(=O)n3-c3ccccc3)c12 [Compound 297]		6	15	61.5	96.0	92.7
CC(=O)c1n[nH]c2ncnc(N3CC[C@H]3c3nn4ccc(Cl)c4c(=O)n3-c3ccccc3)c12 [Compound 298]			158	17.8	61.9	70.2
CC(=O)c1c(N)ncnc1N1CC[C@H]1c1nn2ccc(Cl)c2c(=O)n1-c1ccccc1 [Compound 300]		29	148	51.5	99.1	82.7
CC(=O)c1cnc(N)nc1N1CC[C@H]1c1nn2ccc(Cl)c2c(=O)n1-c1ccc(F)cc1 [Compound 302]		77	8	57.8	96.5	98.6
O=c1c2c(Cl)ccn2nc([C@@H]2CCCN2c2ncnc3[nH]cc(C4=NCCO4)c23)n1-c1ccccc1 [Compound 303, (S)-5-chloro-2-(1-(5-(4,5-dihydrooxazol-2-yl)-7H-pyrrolo[2,3-d]pyrimidin-4-yl)pyrrolidin-2-yl)-3-phenylpyrrolo[2,1-f][1,2,4]triazin-4(3H)-one]	21	1	1	92.7	97.2	94.6
O=C(NCCO)c1c[nH]c2ncnc(N3CC[C@H]3c3nn4ccc(Cl)c4c(=O)n3-c3ccccc3)c12 [Compound 304]		42		47.4	98.2	93.6
O=c1c2c(Cl)ccn2nc([C@@H]2CCN2c2ncnc3[nH]cc(C4=NCCO4)c23)n1-c1ccccc1 [Compound 305]	125	21	7	91.6	>100	97.6
C/C(=N\O)c1c[nH]c2ncnc(N3CCC[C@H]3c3nn4ccc(Cl)c4c(=O)n3-c3ccccc3)c12 [Compound 306, (S)-5-chloro-2-(1-(5-(1-(hydroxyimino)ethyl)-7H-pyrrolo[2,3-d]pyrimidin-4-yl)pyrrolidin-2-yl)-3-phenylpyrrolo[2,1-f][1,2,4]triazin-4(3H)-one]	16	11	29	92.8	>100	>100
CC(=O)Nc1c[nH]c2ncnc(N3CCC[C@H]3c3nn4ccc(Cl)c4c(=O)n3-c3ccccc3)c12 [Compound 307, (S)—N-(4-(2-(5-chloro-4-oxo-3-phenyl-3,4-dihydropyrrolo[2,1-f][1,2,4]triazin-2-yl)pyrrolidin-1-yl)-7H-pyrrolo[2,3-d]pyrimidin-5-yl)acetamide]	213	5	32	80.7	98.9	95.9
N#Cc1c[nH]c2ncnc(N3CC[C@H]3c3nn4ccc(Cl)c4c(=O)n3-c3ccccn3)c12 [Compound 309, (S)-4-(2-(5-chloro-4-oxo-3-(pyridin-2-yl)-3,4-dihydropyrrolo[2,1-f][1,2,4]triazin-2-yl)azetidin-1-yl)-7H-pyrrolo[2,3-d]pyrimidine-5-carbonitrile]		11	99	35.5	>100	94.6
CC(=O)c1c[nH]c2ncnc(N3CC[C@H]3c3nn4ccc(Cl)c4c(=O)n3-c3ccccn3)c12 [Compound 312]		23	67	20.0	97.1	93.7
O=c1c2c(F)ccn2nc([C@@H]2CCCN2c2ncnc3[nH]cnc23)n1-c1ccccn1 [Compound 313]		3	423	52.6	100.0	77.2
Nc1nc(N2CC[C@H]2c2nn3ccc(Cl)c3c(=O)n2-c2ccccc2)n2ncc(Cl)c2n1 [Compound 314, (S)-2-(1-(2-amino-8-chloropyrazolo[1,5-a][1,3,5]triazin-4-yl)azetidin-2-yl)-5-chloro-3-phenylpyrrolo[2,1-f][1,2,4]triazin-4(3H)-one]				16.8	17.2	54.1
N#Cc1cc2nc(N)nc(N3CCC[C@H]3c3nn4ccc(Cl)c4c(=O)n3-c3ccccc3)n2n1 [Compound 320]				5.5	29.1	55.9
CC(=O)c1cnc(N)nc1N1CCCC1c1cn2ccc(Cl)c2c(=O)n1-c1ccccc1 (stereo not shown) [Compound 321]	218	5	11	80.5	100.0	>100
Cc1nc(N)nc(N2CC[C@H]2c2nn3ccc(F)c3c(=O)n2-c2ccccc2)c1C#N [Compound 322]		5	27	58.0	99.5	>100
CC(=O)c1cnc(N)nc1N1CC[C@H]1c1nn2ccc(F)c2c(=O)n1-c1ccccc1 [Compound 323]		12	21	6.1	99.4	>100
CC(=O)c1cnc(N)nc1N1C[C@H](C)[C@H]1c1nn2ccc(F)c2c(=O)n1-c1ccccc1 [Compound 324]	456	1	5	67.1	98.8	>100
